Data on 3 compounds can be found in ChEMBL document CHEMBL4028853, “Microbiota-Host Transgenomic Metabolism, Bioactive Molecules from the Inside” (J Med Chem, 2018).

Each structure is given as a SMILES string. pEC50: −log10 of the molar value.

As usually defined, the pEC50 is −log10 of the EC50, conventionally taken in molar units.

The target in assay [1] is T1, Free fatty acid receptor 3 (Homo sapiens, UniProt O14843).
T1 sequence (O14843 whole entry): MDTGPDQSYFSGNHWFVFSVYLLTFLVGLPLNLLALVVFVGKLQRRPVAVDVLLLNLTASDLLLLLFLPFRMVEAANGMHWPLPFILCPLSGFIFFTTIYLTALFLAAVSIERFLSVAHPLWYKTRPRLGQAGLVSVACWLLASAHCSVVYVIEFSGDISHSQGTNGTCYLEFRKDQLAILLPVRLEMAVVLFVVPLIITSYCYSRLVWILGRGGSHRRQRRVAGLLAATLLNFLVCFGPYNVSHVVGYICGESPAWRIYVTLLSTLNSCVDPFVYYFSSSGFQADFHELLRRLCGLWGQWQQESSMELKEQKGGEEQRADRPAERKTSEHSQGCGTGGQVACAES
Kind of assay: Agonist activity at human GPCR41 transfected in HEK293 cells assessed as [35S]GTPgammaS binding by scintillation counting method. Type of assay: functional, cell-based. (GTPγS resists hydrolysis and so accumulates on activated G proteins.)

Assay [2] deals with T2, Free fatty acid receptor 2 (Homo sapiens, UniProt O15552).
T2 sequence (O15552 whole entry): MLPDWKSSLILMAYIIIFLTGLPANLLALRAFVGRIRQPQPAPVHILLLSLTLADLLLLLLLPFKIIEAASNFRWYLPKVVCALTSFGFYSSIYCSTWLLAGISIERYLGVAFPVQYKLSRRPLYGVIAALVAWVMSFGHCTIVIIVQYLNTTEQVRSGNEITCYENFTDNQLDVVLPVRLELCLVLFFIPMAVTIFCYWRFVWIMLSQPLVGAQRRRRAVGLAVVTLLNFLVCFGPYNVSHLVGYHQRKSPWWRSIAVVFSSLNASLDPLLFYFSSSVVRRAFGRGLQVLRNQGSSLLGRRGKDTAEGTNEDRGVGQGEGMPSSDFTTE
Briefly: Agonist activity at human GPCR43 transfected in HEK293 cells assessed as [35S]GTPgammaS binding by scintillation counting method.

With `CC(=O)O` [ACETIC ACID], the pEC50 is 3.56 to 4.92 in assay [1] and 3.30 to 3.60 in assay [2].
For `CCCC(=O)O` [BUTYRIC ACID], the pEC50 in assay [1] was 3.56 to 4.92.
Same read-out and setting: with `CCC(=O)O` [PROPIONIC ACID] the figure was 3.56 to 4.92.
